In PubChem BioAssay (NCI):
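Values below derive from 48-hour exposures of cells grown in 96-well plates, with endpoints linearly interpolated between the two concentrations bracketing the appropriate inhibition level. At the TGI there is no net growth.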

Legend:
Experiment in all cases: inhibition of tumour cell growth, NCI panel, 48 h
CAKI-1 renal = test system: CAKI-1 renal
HOP-62 NSCLC = test system: HOP-62 NSCLC
NCI-H522 lung = test system: NCI-H522 lung
UACC-257 melanoma = test system: UACC-257 melanoma
SW-620 colon = test system: SW-620 colon
EKVX NSCLC = test system: EKVX NSCLC
IGROV1 ovarian = test system: IGROV1 ovarian
OVCAR-4 ovarian = test system: OVCAR-4 ovarian
MDA-MB-435 = test system: MDA-MB-435
SK-OV-3 ovarian = test system: SK-OV-3 ovarian
OVCAR-3 ovarian = test system: OVCAR-3 ovarian
RPMI-8226 leukemia = test system: RPMI-8226 leukemia
SN12C renal = test system: SN12C renal
SNB-75 CNS = test system: SNB-75 CNS
A498 renal = test system: A498 renal
MALME-3M melanoma = test system: MALME-3M melanoma
SK-MEL-28 melanoma = test system: SK-MEL-28 melanoma
HCT-116 colon = test system: HCT-116 colon
SK-MEL-5 melanoma = test system: SK-MEL-5 melanoma
SNB-19 CNS = test system: SNB-19 CNS
OVCAR-8 ovarian = test system: OVCAR-8 ovarian
NCI-H23 lung = test system: NCI-H23 lung
OVCAR-5 ovarian = test system: OVCAR-5 ovarian
BT-549 breast = test system: BT-549 breast
ACHN renal = test system: ACHN renal
HOP-92 NSCLC = test system: HOP-92 NSCLC
DU-145 prostate = test system: DU-145 prostate
HT29 colon = test system: HT29 colon
RXF 393 renal = test system: RXF 393 renal
LOX IMVI melanoma = test system: LOX IMVI melanoma
SR leukemia = test system: SR leukemia
NCI-H226 lung = test system: NCI-H226 lung
CCRF-CEM leukemia = test system: CCRF-CEM leukemia
MDA-MB-231 breast = test system: MDA-MB-231 breast
M14 melanoma = test system: M14 melanoma
NCI-H460 lung = test system: NCI-H460 lung
SF-539 CNS = test system: SF-539 CNS
PC-3 prostate = test system: PC-3 prostate
HCT-15 colon = test system: HCT-15 colon
COLO 205 colon = test system: COLO 205 colon
MOLT-4 leukemia = test system: MOLT-4 leukemia
786-0 renal = test system: 786-0 renal
NCI/ADR-RES ovarian = test system: NCI/ADR-RES ovarian
A549 NSCLC = test system: A549 NSCLC
K-562 leukemia = test system: K-562 leukemia
SF-268 CNS = test system: SF-268 CNS
SF-295 CNS = test system: SF-295 CNS
UO-31 renal = test system: UO-31 renal
T-47D breast = test system: T-47D breast
SK-MEL-2 melanoma = test system: SK-MEL-2 melanoma
HS 578T breast = test system: HS 578T breast
HL-60(TB) leukemia = test system: HL-60(TB) leukemia
UACC-62 melanoma = test system: UACC-62 melanoma
KM12 colon = test system: KM12 colon
U251 CNS = test system: U251 CNS
HCC-2998 colon = test system: HCC-2998 colon
MCF7 breast = test system: MCF7 breast

In the case of `c1nc(SSc2ncnc3nc[nH]c23)c2[nH]cnc2n1`, the TGI (CAKI-1 renal) is reported as 1.07 µM, the TGI (HOP-62 NSCLC) is reported as greater than 100 µM and the TGI (NCI-H522 lung) is reported as greater than 100 µM. It also gave a TGI (UACC-257 melanoma) greater than 100 µM, a TGI (SW-620 colon) greater than 100 µM and a TGI (EKVX NSCLC) greater than 100 µM. The TGI (IGROV1 ovarian) was greater than 100 µM, the TGI (OVCAR-4 ovarian) was greater than 100 µM and the TGI (MDA-MB-435) was greater than 85.3 µM. The TGI (SK-OV-3 ovarian) was greater than 100 µM, the TGI (OVCAR-3 ovarian) was greater than 33.6 µM and the TGI (RPMI-8226 leukemia) was greater than 100 µM. For the same compound, the TGI (SN12C renal) was greater than 73.3 µM, the TGI (SNB-75 CNS) was greater than 100 µM and the TGI (A498 renal) was greater than 100 µM. The TGI (MALME-3M melanoma) was 18.5 µM, the TGI (SK-MEL-28 melanoma) was greater than 100 µM and the TGI (HCT-116 colon) was greater than 100 µM. It also gave a TGI (SK-MEL-5 melanoma) of 37.6 µM, a TGI (SNB-19 CNS) greater than 100 µM and a TGI (OVCAR-8 ovarian) greater than 100 µM. It also gave a TGI (NCI-H23 lung) of 9.54 µM, a TGI (OVCAR-5 ovarian) greater than 65.2 µM and a TGI (BT-549 breast) greater than 100 µM. For the same compound, the TGI (ACHN renal) was greater than 100 µM, the TGI (HOP-92 NSCLC) was greater than 100 µM and the TGI (DU-145 prostate) was greater than 100 µM. It also gave a TGI (HT29 colon) greater than 100 µM, a TGI (RXF 393 renal) greater than 100 µM and a TGI (LOX IMVI melanoma) of 20.4 µM. For the same compound, the TGI (SR leukemia) was greater than 41.6 µM, the TGI (NCI-H226 lung) was greater than 100 µM and the TGI (CCRF-CEM leukemia) was greater than 100 µM. The TGI (MDA-MB-231 breast) was greater than 56.5 µM, the TGI (M14 melanoma) was greater than 68.7 µM and the TGI (NCI-H460 lung) was greater than 100 µM. The TGI (SF-539 CNS) was greater than 100 µM, the TGI (PC-3 prostate) was greater than 100 µM and the TGI (HCT-15 colon) was greater than 100 µM. The TGI (COLO 205 colon) was greater than 100 µM, the TGI (MOLT-4 leukemia) was greater than 40.4 µM and the TGI (786-0 renal) was greater than 100 µM. For the same compound, the TGI (NCI/ADR-RES ovarian) was greater than 30.5 µM, the TGI (A549 NSCLC) was greater than 100 µM and the TGI (K-562 leukemia) was greater than 100 µM. The TGI (SF-268 CNS) was greater than 29.2 µM, the TGI (SF-295 CNS) was 43.7 µM and the TGI (UO-31 renal) was greater than 100 µM. For the same compound, the TGI (T-47D breast) was greater than 100 µM, the TGI (SK-MEL-2 melanoma) was greater than 100 µM and the TGI (HS 578T breast) was greater than 100 µM. It also gave a TGI (HL-60(TB) leukemia) greater than 100 µM, a TGI (UACC-62 melanoma) of 0.0568 µM and a TGI (KM12 colon) greater than 44.1 µM. It also gave a TGI (U251 CNS) greater than 100 µM.
Compound `COc1cc(C2c3[nH]c4ccc(F)cc4c3C[C@H]3COC(=O)N23)cc(OC)c1O` (some centres undefined) has a TGI (CAKI-1 renal) of 44.7 µM, a TGI (HCC-2998 colon) of 28.4 µM and a TGI (HOP-62 NSCLC) of 21.6 µM. It also gave a TGI (MCF7 breast) greater than 100 µM, a TGI (NCI-H522 lung) of 35.5 µM and a TGI (UACC-257 melanoma) greater than 100 µM. The TGI (EKVX NSCLC) was 92.3 µM, the TGI (IGROV1 ovarian) was greater than 100 µM and the TGI (OVCAR-4 ovarian) was 79.7 µM. For the same compound, the TGI (SK-OV-3 ovarian) was 57.2 µM, the TGI (OVCAR-3 ovarian) was 56 µM and the TGI (RPMI-8226 leukemia) was greater than 100 µM. For the same compound, the TGI (SN12C renal) was 35.5 µM, the TGI (SNB-75 CNS) was 8.84 µM and the TGI (A498 renal) was 25.6 µM. It also gave a TGI (MALME-3M melanoma) of 55.7 µM, a TGI (SK-MEL-28 melanoma) of 33.6 µM and a TGI (HCT-116 colon) of 25.5 µM. For the same compound, the TGI (SK-MEL-5 melanoma) was 34.7 µM, the TGI (SNB-19 CNS) was greater than 100 µM and the TGI (OVCAR-8 ovarian) was 39.3 µM. For the same compound, the TGI (NCI-H23 lung) was 18.5 µM, the TGI (OVCAR-5 ovarian) was 49.2 µM and the TGI (BT-549 breast) was greater than 100 µM. The TGI (ACHN renal) was 26.4 µM, the TGI (HOP-92 NSCLC) was greater than 100 µM and the TGI (DU-145 prostate) was 39.2 µM. It also gave a TGI (HT29 colon) of 26.8 µM, a TGI (RXF 393 renal) of 19.1 µM and a TGI (LOX IMVI melanoma) of 31.3 µM. The TGI (NCI-H226 lung) was 32.3 µM, the TGI (CCRF-CEM leukemia) was greater than 100 µM and the TGI (MDA-MB-231 breast) was 47.4 µM. It also gave a TGI (M14 melanoma) of 43.8 µM, a TGI (NCI-H460 lung) of 19.8 µM and a TGI (SF-539 CNS) of 11.4 µM. For the same compound, the TGI (PC-3 prostate) was greater than 100 µM, the TGI (HCT-15 colon) was 25.2 µM and the TGI (COLO 205 colon) was 23.7 µM. For the same compound, the TGI (MOLT-4 leukemia) was greater than 100 µM, the TGI (786-0 renal) was 26 µM and the TGI (NCI/ADR-RES ovarian) was greater than 100 µM. The TGI (A549 NSCLC) was 28.3 µM, the TGI (K-562 leukemia) was greater than 100 µM and the TGI (SF-268 CNS) was 64.5 µM. The TGI (SF-295 CNS) was 53.8 µM, the TGI (UO-31 renal) was 28.9 µM and the TGI (T-47D breast) was greater than 100 µM. For the same compound, the TGI (SK-MEL-2 melanoma) was 60.3 µM, the TGI (HS 578T breast) was 13 µM and the TGI (HL-60(TB) leukemia) was 38.1 µM. For the same compound, the TGI (UACC-62 melanoma) was 32.6 µM, the TGI (KM12 colon) was 26.3 µM and the TGI (U251 CNS) was 25 µM.
